Data as given in patent US20260207623A1, “USE OF ESTETROL IN HEPATICALLY IMPAIRED PATIENTS” (ESTETRA SRL, priority 2022, published 2026).

Assay: Phase 1 pharmacokinetic study of a single oral dose of 20 mg E4 monohydrate in female subjects with normal hepatic function and mild, moderate or severe hepatic impairment (plasma, LC-MS/MS, non-compartmental analysis)
Type: in vivo, human
Settings: for AUC0-24 h, GM / AUC0-24 h, Mean / AUC0-24 h, Median / AUCinf, GM / AUCinf, Mean / AUCinf, Median / AUClast, GM / AUClast, Mean / AUClast, Median / Cmax, GM / Cmax, Mean / Cmax, Median / T1/2, GM / T1/2, Mean / T1/2, Median / Tmax, Median / λz, GM / λz, Mean / λz, Median: single oral dose 20 mg E4 monohydrate, plasma
Method: This was a Phase 1, multi-centre, open-label, PK, and safety study of a single oral dose of 20 mg E4 monohydrate in female subjects with normal hepatic function (Group 1), mild hepatic impairment (Group 2), moderate hepatic impairment (Group 3), and severe hepatic impairment (Group 4), as defined using the Child-Pugh classification at Screening.
The study consisted of an eligibility Screening period (within 28 days prior to study drug administration), an Assessment Period with in-house period and outpatient visits (including a single oral dose of 20 mg E4 on Day 1), and a follow up visit. All subjects were confined to the study site from Day-1 (the day before dosing) until Day 4 and returned to the site every day from Day 5 to Day 9. Alternatively, the subjects could stay for a prolonged in-house period in agreement with the Investigator. The follow-up visit occurred on Day 14 (+2 days).
All subjects arrived at the study site in the morning of Day-1 in a fasted state (no food for at least 8 h, water was allowed) to have the scheduled assessments performed in order to confirm eligibility as outlined in the inclusion and exclusion criteria (Section 2.3.1 and Section 2.3.2, respectively). In the morning of Day 1 following an overnight fast, the subjects received oral dosing of 20 mg E4 monohydrate and remained at the site. Study-related assessments were performed at time points indicated in the Schedule of Assessments in Table 2.
Serial blood sampling for PK assessments started on Day 1 and proceeded until Day 9 according to the Pharmacokinetic Sampling Schedule presented in Table 3.
Each enrolled subject was to receive a single oral dose of 20 mg of E4 (estetrol) as monohydrate as a film-coated tablet.
Study drug was administered to subjects in the morning after an overnight fast of at least 8 h.
Calculation of non-compartmental PK parameters were done using WinNonlin™ Professional, Version 6.3 or higher.
The primary PK parameters to be analyzed for E4 in plasma: • Cmax=maximum observed plasma concentration • AUCinf=area under the concentration-time curve (AUC) from time zero extrapolated to infinity
The analysis of E4 and the metabolites E4-3-glucuronide and E4-16-glucuronide in plasma samples were performed at the Bioanalytical Laboratory of the CRO using a validated liquid chromatography-mass spectrometry/mass spectrometry method.
Individual and mean plasma concentrations at each sampling time point for E4 are presented by listings and descriptive summary statistics including means, geometric means (GMs), medians, ranges, standard deviations (SD) and coefficients of variation (CV). Individual, mean and/or median concentrations per hepatic function group were plotted versus time on semilogarithmic scales.
PK parameters were calculated by non-compartmental analysis. PK parameters were analysed using descriptive statistics and are presented by hepatic function group.
Analysis of variance (ANOVA) were used to compare primary PK parameters of E4 (Cmax and AUCinf) between subjects with hepatic impairment and subjects with normal hepatic function in an exploratory approach, using the log-transformed value of each PK parameter as dependent variable, and the hepatic impairment group (normal, mild, moderate, and severe) as a fixed classification factor. Geometric least squares means were used to calculate the ratios of primary PK parameters for each hepatic impairment group to those in the control group, along with 90% confidence intervals (CIs).
Additionally, the impact of age and BMI on the effect of hepatic impairment were evaluated using an ANOVA model similar as the ANOVA model described above, but with the interaction between each factor and the hepatic impairment group included as an additional factor.
The relationship between log-transformed PK parameters (Cmax and AUCinf) and continuous parameters (albumin, total bilirubin, and prothrombin time) used for the Child-Pugh score was explored by a linear regression approach. […]

CC12CCC3c4ccc(OC5OC(C(=O)O)C(O)C(O)C5O)cc4CCC3C1C(O)C(O)C2O (stereo not shown) [E4-3-glucuronide, estetrol-3-glucuronide]
AUC0-24 h, GM (Mild hepatic impairment): 0.31586 µg·h/mL | AUC0-24 h, Mean (Mild hepatic impairment): 0.3224 µg·h/mL | AUC0-24 h, Median (Mild hepatic impairment): 0.30266 µg·h/mL | AUCinf, GM (Mild hepatic impairment): 0.49724 µg·h/mL | AUCinf, Mean (Mild hepatic impairment): 0.50696 µg·h/mL | AUCinf, Median (Mild hepatic impairment): 0.48373 µg·h/mL | AUClast, GM (Mild hepatic impairment): 0.47328 µg·h/mL | AUClast, Mean (Mild hepatic impairment): 0.48307 µg·h/mL | AUClast, Median (Mild hepatic impairment): 0.44022 µg·h/mL | Cmax, GM (Mild hepatic impairment): 0.11361 µg/mL | Cmax, Mean (Mild hepatic impairment): 0.118113 µg/mL | Cmax, Median (Mild hepatic impairment): 0.114 µg/mL | T1/2, GM (Mild hepatic impairment): 23.130 h | T1/2, Mean (Mild hepatic impairment): 24.540 h | T1/2, Median (Mild hepatic impairment): 24.692 h | Tmax, Median (Mild hepatic impairment): 0.490 h | λz, GM (Mild hepatic impairment): 0.0300 h⁻¹ | λz, Mean (Mild hepatic impairment): 0.0318 h⁻¹ | λz, Median (Mild hepatic impairment): 0.0281 h⁻¹ | AUC0-24 h, GM (Moderate hepatic impairment): 0.26904 µg·h/mL | AUC0-24 h, Mean (Moderate hepatic impairment): 0.28287 µg·h/mL | AUC0-24 h, Median (Moderate hepatic impairment): 0.29908 µg·h/mL | AUCinf, GM (Moderate hepatic impairment): 0.36325 µg·h/mL | AUCinf, Mean (Moderate hepatic impairment): 0.38813 µg·h/mL | AUCinf, Median (Moderate hepatic impairment): 0.41285 µg·h/mL | AUClast, GM (Moderate hepatic impairment): 0.31158 µg·h/mL | AUClast, Mean (Moderate hepatic impairment): 0.33684 µg·h/mL | AUClast, Median (Moderate hepatic impairment): 0.32582 µg·h/mL | Cmax, GM (Moderate hepatic impairment): 0.11199 µg/mL | Cmax, Mean (Moderate hepatic impairment): 0.122863 µg/mL | Cmax, Median (Moderate hepatic impairment): 0.133 µg/mL | T1/2, GM (Moderate hepatic impairment): 14.390 h | T1/2, Mean (Moderate hepatic impairment): 17.084 h | T1/2, Median (Moderate hepatic impairment): 14.153 h | Tmax, Median (Moderate hepatic impairment): 1 h | λz, GM (Moderate hepatic impairment): 0.0500 h⁻¹ | λz, Mean (Moderate hepatic impairment): 0.0560 h⁻¹ | λz, Median (Moderate hepatic impairment): 0.0502 h⁻¹ | AUC0-24 h, GM (Normal hepatic function): 0.27986 µg·h/mL | AUC0-24 h, Mean (Normal hepatic function): 0.29053 µg·h/mL | AUC0-24 h, Median (Normal hepatic function): 0.30909 µg·h/mL | AUCinf, GM (Normal hepatic function): 0.45811 µg·h/mL | AUCinf, Mean (Normal hepatic function): 0.48588 µg·h/mL | AUCinf, Median (Normal hepatic function): 0.49516 µg·h/mL | AUClast, GM (Normal hepatic function): 0.44622 µg·h/mL | AUClast, Mean (Normal hepatic function): 0.47451 µg·h/mL | AUClast, Median (Normal hepatic function): 0.48566 µg·h/mL | Cmax, GM (Normal hepatic function): 0.06824 µg/mL | Cmax, Mean (Normal hepatic function): 0.073238 µg/mL | Cmax, Median (Normal hepatic function): 0.0701 µg/mL | T1/2, GM (Normal hepatic function): 19.540 h | T1/2, Mean (Normal hepatic function): 20.112 h | T1/2, Median (Normal hepatic function): 18.583 h | Tmax, Median (Normal hepatic function): 0.500 h | λz, GM (Normal hepatic function): 0.0400 h⁻¹ | λz, Mean (Normal hepatic function): 0.0364 h⁻¹ | λz, Median (Normal hepatic function): 0.0373 h⁻¹ | AUC0-24 h, GM (Severe hepatic impairment): 0.29907 µg·h/mL | AUC0-24 h, Mean (Severe hepatic impairment): 0.31497 µg·h/mL | AUC0-24 h, Median (Severe hepatic impairment): 0.26488 µg·h/mL | AUCinf, GM (Severe hepatic impairment): 0.33277 µg·h/mL | AUCinf, Mean (Severe hepatic impairment): 0.36742 µg·h/mL | AUCinf, Median (Severe hepatic impairment): 0.30549 µg·h/mL | AUClast, GM (Severe hepatic impairment): 0.32576 µg·h/mL | AUClast, Mean (Severe hepatic impairment): 0.36081 µg·h/mL | AUClast, Median (Severe hepatic impairment): 0.29624 µg·h/mL | Cmax, GM (Severe hepatic impairment): 0.09397 µg/mL | Cmax, Mean (Severe hepatic impairment): 0.09625 µg/mL | Cmax, Median (Severe hepatic impairment): 0.09155 µg/mL | T1/2, GM (Severe hepatic impairment): 7.710 h | T1/2, Mean (Severe hepatic impairment): 8.652 h | T1/2, Median (Severe hepatic impairment): 6.277 h | Tmax, Median (Severe hepatic impairment): 0.510 h | λz, GM (Severe hepatic impairment): 0.0900 h⁻¹ | λz, Mean (Severe hepatic impairment): 0.1005 h⁻¹ | λz, Median (Severe hepatic impairment): 0.1104 h⁻¹ | time to primary peak of GM plasma concentrations (all groups): ≤ 1 h | Tmax was reached within (mild hepatic impairment): ≤ 2 h | time post dose until which concentrations remained above LLOQ in at least half of the subjects (mild hepatic impairment): 96 h | Tmax was reached within (moderate hepatic impairment): ≤ 2 h | time post dose until which concentrations remained above LLOQ in at least half of the subjects (moderate hepatic impairment): 48 h | time post dose until which concentrations remained above LLOQ in at least half of the subjects (normal hepatic function): 96 h | Tmax was reached within (normal hepatic function (due to an outlier)): ~ 6 h | Tmax was reached within (severe hepatic impairment): ≤ 1 h | time post dose until which concentrations remained above LLOQ in at least half of the subjects (severe hepatic impairment): 36 h
